Measured values: patent publication US20200222474A1, “COMPOSITIONS AND METHODS FOR INCREASING PHYTOCHEMICAL BIOAVAILABLITY AND BIOACTIVITY” (North Carolina State University, priority 2017, published 2020)

System: L. acidophilus NCFM
Assay: RNA-seq transcriptional analysis of L. acidophilus NCFM growing on plant glycosides
Format: cell-based, Lactobacillus acidophilus
[1] = gene LBA0282 (Hypothetical protein)
[2] = gene LBA0327 (Replication protein)
[3] = gene LBA0328 (Hypothetical protein)
[4] = gene LBA0330 (Hypothetical protein)
[5] = gene LBA0457 (Hypothetical protein)
[6] = gene LBA0485 (Hypothetical protein)
[7] = gene LBA0486 (Hypothetical protein)
[8] = gene LBA0487 (Hypothetical protein.)
[9] = gene LBA0492 (Hypothetical protein)
[10] = gene LBA0541 (Cadmium-transporting ATPase)
[11] = gene LBA0542 (Putative heavy-metal-transporting alpase)
[12] = gene LBA0543 (Hypothetical protein)
[13] = gene LBA0544 (Transcriptional regulator)
[14] = gene LBA0555 (Myosin-crossreactive antigen)
[15] = gene LBA0564 (HAD family hydrolase)
[16] = gene LBA0574 (ABC multi drug exporter)
[17] = gene LBA0575 (ABC multi drug exporter)
[18] = gene LBA0604 (Immunity protein)
[19] = gene LBA0605 (Putative hydrolase)
[20] = gene LBA0608 (Hypothetical protein)
[21] = gene LBA0631 (Hypothetical protein)
[22] = gene LBA0649 (Myosin-crossreactive antigen)
[23] = gene LBA0728 (Hypothetical protein LBA0728)
[24] = gene LBA1025 (Aldo/keto reductase family oxidoreductase)
[25] = gene LBA1026 (Aldo/keto reduetase family oxidoreductase)
[26] = gene LBA1206 (Hypothetical protein)
[27] = gene LBA1401 (Peroxidase (Npx))
[28] = gene LBA1435 (Hypothetical protein)
[29] = gene LBA1455 (Putative surface layer protein)
[30] = gene LBA1469 (UDP-glucose 4-epimerase)
[31] = gene LBA1656 (Hypothetical protein)
[32] = gene LBA1675 (Hypothetical protein)
[33] = gene LBA1676 (ATP-dependent helicase)
[34] = gene LBA1683 (Putative magnesium-transporting atpase)
[35] = gene LBA1704 (N-Acetylmuramic acid-6-phosphate etherase)
[36] = gene LBA1740 (Hypothetical protein)
[37] = gene LBA1752 (Hypothetical protein)
[38] = gene LBA1769 (Hypothetical protein)
[39] = gene LBA1793 (Hypothetical protein)
[40] = gene LBA1869 (Beta-phosphoglueomutase)
[41] = gene LBA1895 (Hypothetical protein)
[42] = nTPM on plant glycoside relative to glucose, mid-exponential phase

O=c1ccc2cc(O[C@@H]3O[C@H](CO)[C@@H](O)[C@H](O)[C@H]3O)c(O)cc2o1 [Esculin]
Log2 differential normalized TPM ratio compared to glucose [1]: 2.1
Log2 differential normalized TPM ratio compared to lactose [1]: 1.4
Transcripts per million (rpm) [1]: 92.4 rpm
Log2 differential normalized TPM ratio compared to glucose [2]: 2.4
Log2 differential normalized TPM ratio compared to lactose [2]: 2.1
Transcripts per million (rpm) [2]: 43.4 rpm
Log2 differential normalized TPM ratio compared to glucose [3]: 1.9
Log2 differential normalized TPM ratio compared to lactose [3]: 2
Transcripts per million (rpm) [3]: 55.9 rpm
Log2 differential normalized TPM ratio compared to glucose [4]: 3.3
Log2 differential normalized TPM ratio compared to lactose [4]: 2.9
Transcripts per million (rpm) [4]: 211.2 rpm
Log2 differential normalized TPM ratio compared to glucose [5]: 2.1
Log2 differential normalized TPM ratio compared to lactose [5]: 1.1
Transcripts per million (rpm) [5]: 2243.1 rpm
Log2 differential normalized TPM ratio compared to glucose [6]: 2
Log2 differential normalized TPM ratio compared to lactose [6]: −0.4
Transcripts per million (rpm) [6]: 868.4 rpm
Log2 differential normalized TPM ratio compared to glucose [7]: 2.3
Log2 differential normalized TPM ratio compared to lactose [7]: −0.5
Transcripts per million (rpm) [7]: 1210.2 rpm
Log2 differential normalized TPM ratio compared to glucose [8]: 1
Log2 differential normalized TPM ratio compared to lactose [8]: −0.3
Transcripts per million (rpm) [8]: 69.1 rpm
Log2 differential normalized TPM ratio compared to glucose [9]: 3.7
Log2 differential normalized TPM ratio compared to lactose [9]: 1.2
Transcripts per million (rpm) [9]: 108.4 rpm
Log2 differential normalized TPM ratio compared to glucose [10]: 1.9
Log2 differential normalized TPM ratio compared to lactose [10]: −0.3
Transcripts per million (rpm) [10]: 138.8 rpm
Log2 differential normalized TPM ratio compared to glucose [11]: 1.9
Log2 differential normalized TPM ratio compared to lactose [11]: −0.3
Transcripts per million (rpm) [11]: 337.4 rpm
Log2 differential normalized TPM ratio compared to glucose [12]: 2
Log2 differential normalized TPM ratio compared to lactose [12]: −0.4
Transcripts per million (rpm) [12]: 278.7 rpm
Log2 differential normalized TPM ratio compared to glucose [13]: 1.6
Log2 differential normalized TPM ratio compared to lactose [13]: −0.3
Transcripts per million (rpm) [13]: 342.2 rpm
Log2 differential normalized TPM ratio compared to glucose [14]: 2
Log2 differential normalized TPM ratio compared to lactose [14]: 0.1
Transcripts per million (rpm) [14]: 186.9 rpm
Log2 differential normalized TPM ratio compared to glucose [15]: 1.4
Log2 differential normalized TPM ratio compared to lactose [15]: 0.9
Transcripts per million (rpm) [15]: 2.8 rpm
Log2 differential normalized TPM ratio compared to glucose [16]: 2.4
Log2 differential normalized TPM ratio compared to lactose [16]: 2.1
Transcripts per million (rpm) [16]: 490.6 rpm
Log2 differential normalized TPM ratio compared to glucose [17]: 2.2
Log2 differential normalized TPM ratio compared to lactose [17]: 2
Transcripts per million (rpm) [17]: 381 rpm
Log2 differential normalized TPM ratio compared to glucose [18]: −0.3
Log2 differential normalized TPM ratio compared to lactose [18]: −0.8
Transcripts per million (rpm) [18]: 12.5 rpm
Log2 differential normalized TPM ratio compared to glucose [19]: 2.4
Log2 differential normalized TPM ratio compared to lactose [19]: 1.4
Transcripts per million (rpm) [19]: 15.5 rpm
Log2 differential normalized TPM ratio compared to glucose [20]: 2.3
Log2 differential normalized TPM ratio compared to lactose [20]: 1.2
Transcripts per million (rpm) [20]: 183.9 rpm
Log2 differential normalized TPM ratio compared to glucose [21]: 2.9
Log2 differential normalized TPM ratio compared to lactose [21]: −0.2
Transcripts per million (rpm) [21]: 9527.2 rpm
Log2 differential normalized TPM ratio compared to glucose [22]: 1.9
Log2 differential normalized TPM ratio compared to lactose [22]: 1.2
Transcripts per million (rpm) [22]: 154.8 rpm
Log2 differential normalized TPM ratio compared to glucose [23]: 4.8
Log2 differential normalized TPM ratio compared to lactose [23]: 3
Transcripts per million (rpm) [23]: 70.6 rpm
Log2 differential normalized TPM ratio compared to glucose (gene LBA0861 (Polyferredoxin)): 2
Log2 differential normalized TPM ratio compared to lactose (gene LBA0861 (Polyferredoxin)): 1.5
Transcripts per million (rpm) (gene LBA0861 (Polyferredoxin)): 785.8 rpm
Log2 differential normalized TPM ratio compared to glucose (gene LBA1023 (Oxidoreductase)): 2.3
Log2 differential normalized TPM ratio compared to lactose (gene LBA1023 (Oxidoreductase)): 2
Transcripts per million (rpm) (gene LBA1023 (Oxidoreductase)): 911.4 rpm
Log2 differential normalized TPM ratio compared to glucose [24]: 2.7
Log2 differential normalized TPM ratio compared to lactose [24]: 2.7
Transcripts per million (rpm) [24]: 210.8 rpm
Log2 differential normalized TPM ratio compared to glucose [25]: 2.3
Log2 differential normalized TPM ratio compared to lactose [25]: 1.9
Transcripts per million (rpm) [25]: 162.5 rpm
Log2 differential normalized TPM ratio compared to glucose (gene LBA1027 (Oxidoreductase)): 2.1
Log2 differential normalized TPM ratio compared to lactose (gene LBA1027 (Oxidoreductase)): 0.6
Transcripts per million (rpm) (gene LBA1027 (Oxidoreductase)): 2680.9 rpm
Log2 differential normalized TPM ratio compared to glucose [26]: 2.2
Log2 differential normalized TPM ratio compared to lactose [26]: 1
Transcripts per million (rpm) [26]: 636.7 rpm
Log2 differential normalized TPM ratio compared to glucose [27]: 3.1
Log2 differential normalized TPM ratio compared to lactose [27]: 1
Transcripts per million (rpm) [27]: 609.8 rpm
Log2 differential normalized TPM ratio compared to glucose [28]: 5
Log2 differential normalized TPM ratio compared to lactose [28]: 1.3
Transcripts per million (rpm) [28]: 142.3 rpm
Log2 differential normalized TPM ratio compared to glucose [29]: 0.7
Log2 differential normalized TPM ratio compared to lactose [29]: −0.9
Transcripts per million (rpm) [29]: 28.7 rpm
Log2 differential normalized TPM ratio compared to glucose [30]: 2.1
Log2 differential normalized TPM ratio compared to lactose [30]: −2.9
Transcripts per million (rpm) [30]: 385 rpm
Log2 differential normalized TPM ratio compared to glucose [31]: 1.2
Log2 differential normalized TPM ratio compared to lactose [31]: 0.6
Transcripts per million (rpm) [31]: 48.5 rpm
Log2 differential normalized TPM ratio compared to glucose [32]: 2.2
Log2 differential normalized TPM ratio compared to lactose [32]: 0.8
Transcripts per million (rpm) [32]: 1975.8 rpm
Log2 differential normalized TPM ratio compared to glucose [33]: 2
Log2 differential normalized TPM ratio compared to lactose [33]: 0.8
Transcripts per million (rpm) [33]: 1361.3 rpm
Log2 differential normalized TPM ratio compared to glucose [34]: 0.3
Log2 differential normalized TPM ratio compared to lactose [34]: 0.5
Transcripts per million (rpm) [34]: 20.5 rpm
Log2 differential normalized TPM ratio compared to glucose [35]: 1.6
Log2 differential normalized TPM ratio compared to lactose [35]: 0.9
Transcripts per million (rpm) [35]: 21.2 rpm
Log2 differential normalized TPM ratio compared to glucose [36]: 2.4
Log2 differential normalized TPM ratio compared to lactose [36]: 1.6
Transcripts per million (rpm) [36]: 95.9 rpm
Log2 differential normalized TPM ratio compared to glucose [37]: 2.3
Log2 differential normalized TPM ratio compared to lactose [37]: 1.4
Transcripts per million (rpm) [37]: 42.9 rpm
Log2 differential normalized TPM ratio compared to glucose [38]: 1.9
Log2 differential normalized TPM ratio compared to lactose [38]: 0
Transcripts per million (rpm) [38]: 6023.9 rpm
Log2 differential normalized TPM ratio compared to glucose [39]: 0.7
Log2 differential normalized TPM ratio compared to lactose [39]: −2.1
Transcripts per million (rpm) [39]: 28.5 rpm
Log2 differential normalized TPM ratio compared to glucose (gene LBA1796 (ABC exporter)): 1.9
Log2 differential normalized TPM ratio compared to lactose (gene LBA1796 (ABC exporter)): −0.6
Transcripts per million (rpm) (gene LBA1796 (ABC exporter)): 35.2 rpm
Log2 differential normalized TPM ratio compared to glucose [40]: 4.2
Log2 differential normalized TPM ratio compared to lactose [40]: 1.8
Transcripts per million (rpm) [40]: 156.4 rpm
Log2 differential normalized TPM ratio compared to glucose [41]: 1.4
Log2 differential normalized TPM ratio compared to lactose [41]: 1.2
Transcripts per million (rpm) [41]: 74.5 rpm
Log2 Ratio vs Glc, LBA0225 Phospho-β-glucosidase (GH1) [42]: −0.2
Log2 Ratio vs Glc, LBA0227 PTS EIIC [42]: 0.8
Log2 Ratio vs Glc, LBA0228 Transcriptional regulator [42]: 0.9
Log2 Ratio vs Glc, LBA0466 Phosphoenolpyruvate carboxykinase (ATP) [42]: 2
Log2 Ratio vs Glc, LBA0491 PTS EIIC [42]: 3.4
Log2 Ratio vs Glc, LBA0492 Hypothetical protein [42]: 3.7
Log2 Ratio vs Glc, LBA0555 Myosin-cross-reactive antigen/Fatty acid hydratase [42]: 2
Log2 Ratio vs Glc, LBA0606 PTS EIIBC [42]: 2.8
Log2 Ratio vs Glc, LBA0631 Hypothetical protein [42]: 2.9
Log2 Ratio vs Glc, LBA0724 Transcriptional regulator (antiterminator) [42]: 5.5
Log2 Ratio vs Glc, LBA0725 PTS EIICBA [42]: 9.8
Log2 Ratio vs Glc, LBA0726 Phospho-β-glucosidase (GH1) [42]: 6.9
Log2 Ratio vs Glc, LBA0728 Hypothetical protein [42]: 4.8
Log2 Ratio vs Glc, LBA0876 PTS EIIC [42]: 2.9
Log2 Ratio vs Glc, LBA0877 PTS EIIA [42]: 3
Log2 Ratio vs Glc, LBA1401 Peroxidase (Npx) [42]: 3.1
Log2 Ratio vs Glc, LBA1411 Fumarate reductase flavoprotein subunit [42]: 1.7
Log2 Ratio vs Glc, LBA1433 Dihydroxyacetone kinase [42]: 3.7
Log2 Ratio vs Glc, LBA1434 Dihydroxyacetone kinase [42]: 4.5
Log2 Ratio vs Glc, LBA1435 Hypothetical protein [42]: 5
Log2 Ratio vs Glc, LBA1436 Glycerol uptake facilitator protein [42]: 4.9
Log2 Ratio vs Glc, LBA1632 NAD-dependent aldehyde dehydrogenase [42]: 3.3
Log2 Ratio vs Glc, LBA1684 PTS EIIA [42]: 2.9
Log2 Ratio vs Glc, LBA1689 Maltose-6′-phosphate glucosidase (GH4) [42]: 1.8
Log2 Ratio vs Glc, LBA1701 Melibiose operon regulatory protein [42]: 4.9
Log2 Ratio vs Glc, LBA1709 Mucus binding protein precursor [42]: 3.6
Log2 Ratio vs Glc, LBA1797 Hypothetical protein [42]: 2.6
Log2 Ratio vs Glc, LBA1812 α-Glucosidase II (GH31) [42]: 2.8
Log2 Ratio vs Glc, LBA1869 β-Phosphoglucomutase [42]: 4.2
Log2 Ratio vs Glc, LBA1871 Neopullulanase (GH13) [42]: 2.1
Log2 Ratio vs Glc, LBA1873 Acetate kinase [42]: 0.8
Log2 Ratio vs Glc, LBA1974 Pyruvate oxidase [42]: 3.6
